Measured values taken from PubChem BioAssay AID651549 (Sanford-Burnham Center for Chemical Genomics, 2012).
Active and inactive are the calls of the source.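 How the source made its calls: active means compounds blocking the PEG3 reporter with IC50 up to 10 µM at either incubation, yet sparing the GAPDH control reporter; inactive means the rest.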

Experiment: GAPDH and PEG-3 promoter luciferase suppression – cell-based, luminescence, set 2, counter-screen for PEG-3 promoter inhibitor project, dose response (AID 651549)
Conditions: HeLa PEG-Prom-luciferase or GAPDH-reporter, 6/24 h

Structure (SMILES)	IC50 (GAPDH, run 1, 6 h)	IC50 (GAPDH, run 1, 24 h)	IC50 (PEG-3, run 1, 6 h)	IC50 (PEG-3, run 1, 24 h)
CC(=O)OC1(C)CC(C)C(=O)C(C(O)CC2CC(=O)NC(=O)C2)C1 (centres undefined)	< 1 µM	< 1 µM	< 1 µM	0.353 µM
Cc1cc(C)cc(NS(=O)(=O)c2ccc3[nH]cc(C(=O)NCc4ccco4)c(=O)c3c2)c1	inactive	2.43 µM	> 99 µM (inactive)	5.44 µM
CS(=O)(=O)Nc1cccc(NC(=O)C2Cc3c(-c4ccccc4)ccnc3O2)c1 (centres undefined)	> 99 µM (inactive)	4.26 µM	> 99 µM (inactive)	5.57 µM
O=C(Nc1ccccc1C(=O)Nc1nnc(C(F)(F)F)s1)c1ccccc1	1.41 µM	7.02 µM	> 99 µM (inactive)	inactive
Cc1c(CN2CCC(CO)(CCOc3ccccc3)CC2)[nH]c2c(Cl)cccc12	inactive	inactive	inactive	inactive
CCOC(=O)c1ccc2nc(Nc3nc4ccc(F)cc4s3)sc2c1	> 99 µM (inactive)	> 99 µM (inactive)	0.31 µM	< 1 µM
CCc1ccn2cc(-c3ccc4c(c3)OCO4)nc2c1	2.23 µM	inactive	2.12 µM	5.02 µM
CC(C)(C)c1ccc(Cn2c(=O)cnc3ccccc32)cc1	6 µM	6.64 µM	3.47 µM	inactive
CC(=O)OC1CC2(O)C3CCC4CC(O)CCC4(C)C3CCC2(C)C1C1=CC(=O)OC1 (centres undefined)	0.416 µM	0.458 µM	> 99 µM (inactive)	0.499 µM
Cc1ccc(S(=O)(=O)NC(CC(C)C)C(=O)NCC(c2ccco2)N2CCCCC2)cc1 (centres undefined)	inactive	inactive	inactive	inactive
Cc1c(/C(O)=C2/C(=O)C(=O)N(Cc3cccnc3)C2c2ccccn2)cnn1-c1ccccc1 (centres undefined)	1.01 µM	1.92 µM	1.58 µM	5.27 µM
COC1CC(C)C(OC)c2cc(O)cc(c2O)NC(=O)C(C)=CC=CC(C)C(OC(N)=O)C(C)=CC(C)C1OC (centres undefined)	inactive	inactive	inactive	inactive
Cn1c(Cl)cnc1C1CC(=O)c2cc(Cl)ccc2O1 (centres undefined)	inactive	9.11 µM	inactive	inactive
Cc1ccc2nc(NC(=O)CSCC(=O)OCC(=O)c3ccc(Br)cc3)sc2c1	3.81 µM	1.98 µM	> 99 µM (inactive)	1.96 µM
Cc1ccc(-c2cn3nc(C)c(C)nc3n2)cc1	inactive	> 99 µM (inactive)	inactive	> 99 µM (inactive)
Cc1cc(C(=O)Nc2cccc(C(=O)O)c2)oc1C	7.74 µM	inactive	inactive	inactive
C=CCn1c(C)cc(C(=O)COc2ccc(C)nc2[N+](=O)[O-])c1C	8.44 µM	inactive	9.65 µM	3.38 µM
CCn1cc(C(=O)NCc2ccco2)c(=O)c2cc(S(=O)(=O)N3CC(C)CC(C)C3)ccc21 (centres undefined)	inactive	2.7 µM	> 99 µM (inactive)	2.63 µM
CC1CC(C)C(=O)C(C(CC2CC(=O)NC(=O)C2)OC(=O)CC(=O)c2ccccc2)C1 (centres undefined)	1.36 µM	7.25 µM	5.46 µM	inactive
CC(CCc1ccccc1)NC(=O)COC(=O)c1ccc(S(C)(=O)=O)c([N+](=O)[O-])c1 (centres undefined)	inactive	inactive	inactive	9.86 µM
COc1ccc(CC2C(=O)NC(C)C(=O)N(C)C3C(=O)N(C)C(Cc4ccc(O)c(c4)Oc4ccc(cc4)C3O)C(=O)NC(C)C(=O)NC(C)C(=O)N2C)cc1 (centres undefined)	< 1 µM	< 1 µM	< 1 µM	< 1 µM
CC(=O)c1cccc(-c2ccnc3c2CC(C(=O)Nc2cccc(NS(C)(=O)=O)c2)O3)c1 (centres undefined)	inactive	8.62 µM	> 99 µM (inactive)	inactive
COc1ccc(-n2cc(-c3ccccc3)c3c(N4CCOCC4)ncnc32)cc1	inactive	2.98 µM	inactive	inactive
CS(=O)(=O)c1ccc(-c2cn3cc(C(=O)O)ccc3n2)cc1	inactive	3.4 µM	inactive	inactive
CN1CCC2(CC1)N=C(c1ccc(F)cc1)C(=S)N2C(=O)c1ccc(C(C)(C)C)cc1	inactive	inactive	inactive	inactive
O=C(O)CSCC(=O)Nc1ccc(C2CCCCC2)cc1	5.37 µM	0.307 µM	5.56 µM	4.57 µM
